Measurements from patent US20240376123A1, “KRAS G12D INHIBITORS AND USES THEREOF” (SUZHOU ZANRONG PHARMA LIMITED, priority 2021, published 2024).

Experiments:
[1] = system: AsPC-1 (ATCC CRL-1682) cells; experiment: KRAS G12D 3D CellTiter-Glo proliferation assay, AsPC-1; type: cell-based; details: Homo sapiens, ASPC1, 168 h; 3D proliferation, 7 days, CellTiter-Glo 3D
Protocol: (§1) HPAC (ATCC CRL-2119) and AsPC-1 (ATCC CRL-1682) cells were purchased from ATCC, and each cell was cultured in medium supplemented with 10% fetal bovine serum (FBS), according to the protocol recommended by the manufacture. Serially diluted compound was added to 384-well Ultra-Low Attachment Surface round bottom plate (Corning). 400 cells/well were seeded in plate and incubated at 37° C., 5% CO2 for 7 days. Cell viability was measured using a CellTiter-Glo® 3D Cell Viability Assay kit (Promega) according to the manufacturer's protocol.
(§2) The 2D and 3D proliferation data of the exemplary compounds of the present disclosure in different cell lines are shown in Table 3.

[2] = system: HPAC (ATCC CRL-2119) cells; experiment: KRAS G12D 3D CellTiter-Glo proliferation assay, HPAC; type: cell-based; details: Homo sapiens, 168 h, 3D proliferation, 7 days, CellTiter-Glo 3D
Protocol: as §1, §2

[3] = system: p-ERK in PNAC-1/HPAC cell; experiment: Phospho-ERK 1/2 assay (Table 1); type: cell-based; details: Homo sapiens; PNAC-1/HPAC cell, 3 hours compound incubation; read-out: p-ERK IC50
Protocol: (§3) Allow PNAC-1/HPAC cell growth in a T75 flask in DMEM and 10% 1 fetal calf serum (FCS; Gibco), using standard tissue culture procedures until ˜80% confluency is achieved. Day 1, seed 6000 cells/well in 384 well plate and incubate at 37° C., 5% CO2. Add diluted compound by Echo 550, final DMSO is 0.5%, incubate cells at 37° C., 5% CO2 for 3 hours. Then, remove medium and fix cells with 3.7% formaldehyde in PBS (PFA) by Apricot. Wash with PBS once. Permeabilize cells with cold 100% methanol and repeat wash once with PBS once. Add Li-Cor blocking buffer to each well and incubate 1.5 hours at RT. Remove blocking buffer and add primary antibody mixture (rabbit anti pERK, mouse anti GAPDH). Incubate at 4° C. overnight. Day 2, wash with PBST (Tween-20 in PBS) with total 3 times and then add secondary antibody mixture (goat anti rabbit 800CW (1:800 dilution in the combined solution) and goat anti mouse 680RD (1:800 dilution in the combined solution)), incubate for 60 minutes at RT away from light. Repeat washing with PBST 3 times. After final wash, centrifuge plate up-side-down at 1000 rpm to remove wash solution completely from wells. Before plate scanning, clean the bottom plate surface and the Odyssey* Imager scanning bed (if applicable) with moist, lint-free tissue to avoid any obstructions during scanning. Scan plate with detection in both 700 and 800 nm channels.

[4] = system: AsPC-1 (ATCC CRL-1682) cells; experiment: KRAS G12D 2D CellTiter-Glo proliferation assay, AsPC-1; type: cell-based; details: Homo sapiens, ASPC1, 2D proliferation, 72 hours
Protocol: (§4) AsPC-1 (ATCC CRL-1682) and LS513 (ATCC CRL-2134) cells were purchased from ATCC, GP2D (Cobioer CBP60010) cells was purchased from Cobioer biosciences CO., LTD, and each cell was cultured in medium supplemented with 10% fetal bovine serum (FBS), according to the protocol recommended by the manufacture. Cells were seeded 800 cells/well in 384-well plates (Corning) and incubated at 37° C., 5% CO2 for 18 hours. Serially diluted compound was added to the cells, and plates were incubated at 37° C., 5% CO2 for 72 hours. Cell viability was measured using a CellTiter-Glo® Luminescent Cell Viability Assay kit (Promega) according to the manufacturer's protocol.
as §2

[5] = system: GP2D (Cobioer CBP60010) cells; experiment: KRAS G12D 2D CellTiter-Glo proliferation assay, GP2D; type: cell-based; details: 2D proliferation, 72 hours
Protocol: as §4, §2

[6] = system: LS513 (ATCC CRL-2134) cells; experiment: KRAS G12D 2D CellTiter-Glo proliferation assay, LS513; type: cell-based; details: Homo sapiens, LS-513, 2D proliferation, 72 hours
Protocol: as §4, §2

WT-KRAS cell line MKN-1 = experiment: Phospho-ERK 1/2 assay, WT-KRAS cell line MKN-1 (Table 2); type: cell-based; details: for IC50: Homo sapiens, WT-KRAS cell line MKN-1, p-ERK; for Selectivity Fold: selectivity over WT-KRAS cell line MKN-1 vs Panc-1 p-ERK
Protocol: as §3
(§5) Table 2 describes the p-ERK IC50 values and selectivity over WT-KRAS cell line MKN-1 of the exemplary compounds of the present disclosure and reference compound MRTX-1133.

Panc-1 p-ERK = experiment: Phospho-ERK 1/2 assay, Panc-1 (Table 2); type: cell-based; details: Homo sapiens; Panc-1 cells
Protocol: as §3, §5

[7] = In vivo oral bioavailability assay; details: Balb/c mice female, IV bolus 1 mg/kg and oral gavage 30 mg/kg, single dose
Protocol: Single dose following IV bolus (1 mg/kg, 0.2 mg/mL in 1% DMSO, 99% SBE-β-CD (10% w/v) in water) and oral gavage (30 mg/kg, 3 mg/mL in 1% MC in DI water) administration of test compound in Balb/c Mice female. The blood samples were collected at 2 min, 5 min, 10 min, 30 min, 1 hr, 2 hr, 4 hr, 8 hr and 24 hr (additional 32 hr and 48 hr for MRTX1133) after IV bolus, at 15 min, 30 min, 1 hr, 1.5 hr, 2 hr, 3 hr, 4 hr, 8 hr and 24 hr (additional 32 hr and 48 hr for MRTX1133) after PO administration. The plasma concentrations of compounds were determined with UPLC-MS/MS.

For `Oc1cc(Cl)c(C2CC2)c(-c2nc3c4c(nc(OC[C@@]56CCCN5C[C@H](F)C6)nc4c2F)N2C[C@@H]4CC[C@@H](N4)C2CO3)c1` (stereo partly drawn) [Compound 24, 3-chloro-4-cyclopropyl-5-((6R,9S)-1-fluoro-12-(((2R,7aS)-2-fluorotetrahydro-1H-pyrrolizin-7a(5H)-yl)methoxy)-5a,6,7,8,9,10-hexahydro-5H-4-oxa-3,10a,11,13,14-pentaaza-6,9-methanonaphtho[1,8-ab]heptalen-2-yl)phenol], the IC50 [1] was 8.7 nM, the IC50 [2] was 7.1 nM and the IC50 [3] was 7 nM. It also gave an IC50 [4] of 71 nM, an IC50 [5] of 2.2 nM and an IC50 [6] of 93 nM.
`CCc1c(F)ccc2cc(O)cc(-c3nc4c5c(nc(OC[C@@]67CCCN6C[C@H](F)C7)nc5c3F)N3C[C@H]5CC[C@H](N5)[C@H]3CO4)c12` [Compound 28, 5-ethyl-6-fluoro-4-((5aS,6S,9R)-1-fluoro-12-(((2R,7aS)-2-fluorotetrahydro-1H-pyrrolizin-7a(5H)-yl)methoxy)-5a,6,7,8,9,10-hexahydro-5H-4-oxa-3,10a,11,13,14-pentaaza-6,9-methanonaphtho[1,8-ab]heptalen-2-yl)naphthalen-2-ol] gave an IC50 [1] of 4.7 nM, an IC50 [2] of 3.3 nM and an IC50 (WT-KRAS cell line MKN-1) of 76 nM. The “Selectivity Fold” value (WT-KRAS cell line MKN-1) was 100 Fold, the IC50 [3] was 0.76 nM and the IC50 [4] was 35 nM. For the same compound, the IC50 [5] was 1.2 nM, the IC50 [6] was 25.2 nM and the IC50 (Panc-1 p-ERK) was 0.76 nM.
With `C#Cc1c(F)ccc2cc(O)cc(-c3ncc4c(N5CC6CCC(C5)N6)nc(OC[C@@]56CCCN5C[C@H](F)C6)nc4c3F)c12` [MRTX-1133, reference compound] the IC50 (WT-KRAS cell line MKN-1) was 83 nM, the “Selectivity Fold” value (WT-KRAS cell line MKN-1) was 36 Fold and the “Bioavailability (%)” value [7] was 0.66%. For the same compound, the “Fa*Fg (%)” value [7] was 0.95% and the IC50 (Panc-1 p-ERK) was 2.3 nM.
`C#Cc1c(F)ccc2cccc(-c3nc4c5c(nc(OC[C@@]67CCCN6C[C@H](F)C7)nc5c3F)N3CC5CCC(N5)[C@H]3CO4)c12` (single isomer, unassigned) [Compound 10] showed an IC50 [1] of 48 nM, an IC50 [2] of 28 nM and an IC50 (WT-KRAS cell line MKN-1) of 343 nM. The “Selectivity Fold” value (WT-KRAS cell line MKN-1) was 171 Fold, the IC50 [3] was 2 nM and the IC50 [4] was 490 nM. For the same compound, the IC50 [5] was 15 nM, the “Bioavailability (%)” value [7] was 37.7% and the “Fa*Fg (%)” value [7] was 54.0%. It also gave an IC50 [6] of 238 nM and an IC50 (Panc-1 p-ERK) of 2 nM.
Work on `C#Cc1cccc2cccc(-c3nc4c5c(nc(OC[C@@]67CCCN6C[C@H](F)C7)nc5c3F)N3C[C@H]5CC[C@H](N5)[C@H]3CO4)c12` [Compound 25, (5aS,6S,9R)-2-(8-ethynylnaphthalen-1-yl)-1-fluoro-12-(((2R,7aS)-2-fluorotetrahydro-1H-pyrrolizin-7a(5H)-yl)methoxy)-5a,6,7,8,9,10-hexahydro-5H-4-oxa-3,10a,11,13,14-pentaaza-6,9-methanonaphtho[1,8-ab]heptalene] yielded an IC50 [1] of 54 nM, an IC50 [2] of 76 nM and an IC50 (WT-KRAS cell line MKN-1) of 754 nM. The “Selectivity Fold” value (WT-KRAS cell line MKN-1) was 75 Fold, the IC50 [3] was 10 nM and the IC50 [4] was 516 nM. The IC50 [5] was 23 nM, the “Bioavailability (%)” value [7] was 39.2% and the “Fa*Fg (%)” value [7] was 56.6%. For the same compound, the IC50 [6] was 80 nM and the IC50 (Panc-1 p-ERK) was 10 nM.
Compound `Fc1ccc2cccc(-c3nc4c5c(nc(OC[C@@]67CCCN6C[C@H](F)C7)nc5c3F)N3C[C@@H]5CC[C@@H](N5)C3CO4)c2c1Cl` (stereo partly drawn) [Compound 11, (6R,9S)-2-(8-chloro-7-fluoronaphthalen-1-yl)-1-fluoro-12-(((2R,7aS)-2-fluorotetrahydro-1H-pyrrolizin-7a(5H)-yl)methoxy)-5a,6,7,8,9,10-hexahydro-5H-4-oxa-3,10a,11,13,14-pentaaza-6,9-methanonaphtho[1,8-ab]heptalene] has an IC50 [3] of 53 nM.
In the case of `C#Cc1c(F)ccc2cccc(-c3nc4c5c(nc(OC[C@@]67CCCN6C[C@H](F)C7)nc5c3F)N3CC5CCC(N5)C3CO4)c12` (stereo partly drawn) [Compound 8, (6R,9S)-2-(8-ethynyl-7-fluoronaphthalen-1-yl)-1-fluoro-12-(((2R,7aS)-2-fluorotetrahydro-1H-pyrrolizin-7a(5H)-yl)methoxy)-5a,6,7,8,9,10-hexahydro-5H-4-oxa-3,10a,11,13,14-pentaaza-6,9-methanonaphtho[1,8-ab]heptalene], the IC50 [3] is reported as 9 nM.
`Oc1cc(-c2nc3c4c(nc(OC[C@@]56CCCN5C[C@H](F)C6)nc4c2F)N2C[C@@H]4CC[C@@H](N4)C2CO3)c2c(Cl)cccc2c1` (stereo partly drawn) [Compound 1, 5-Chloro-4-((6R,9S)-1-fluoro-12-(((2R,7aS)-2-fluorotetrahydro-1H-pyrrolizin-7a(5H)-yl)methoxy)-5a,6,7,8,9,10-hexahydro-5H-4-oxa-3,10a,11,13,14-pentaaza-6,9-methanonaphtho[1,8-ab]heptalen-2-yl)naphthalen-2-ol] gave an IC50 [3] of 33 nM.
In the case of `Cc1c(F)ccc2cccc(-c3nc4c5c(nc(OC[C@@]67CCCN6C[C@H](F)C7)nc5c3F)N3C[C@@H]5CC[C@@H](N5)C3CO4)c12` (stereo partly drawn) [Compound 13, (6R,9S)-1-fluoro-2-(7-fluoro-8-methylnaphthalen-1-yl)-12-(((2R,7aS)-2-fluorotetrahydro-1H-pyrrolizin-7a(5H)-yl)methoxy)-5a,6,7,8,9,10-hexahydro-5H-4-oxa-3,10a,11,13,14-pentaaza-6,9-methanonaphtho[1,8-ab]heptalene], the IC50 [3] is reported as 237 nM.
